ChEMBL document CHEMBL3233001, “Pharmacophoric modifications lead to superpotent αvβ3 integrin ligands with suppressed α5β1 activity” (J Med Chem, 2014)

Experiments:
Format in all cases: protein-complex assay
Integrin alpha-V/beta-3 = Integrin alpha-V/beta-3 (Homo sapiens, UniProt P05106+P06756); test: Inhibition of vitronectin binding to human alphavbeta3 integrin receptor after 1 hr by competitive solid-phase binding ELISA
Integrin alpha-5/beta-1 = Integrin alpha-5/beta-1 (Homo sapiens, UniProt P05556+P08648); test: Inhibition of fibronectin binding to human alpha5beta1 integrin receptor after 1 hr by competitive solid-phase binding ELISA
Integrin alpha-V/beta-5 = Integrin alpha-V/beta-5 (Homo sapiens, UniProt P06756+P18084); test: Inhibition of vitronectin binding to alphavbeta5 integrin receptor (unknown origin) after 1 hr by competitive solid-phase binding ELISA
Integrin alpha-V/beta-6 = Integrin alpha-V/beta-6 (Homo sapiens, UniProt P06756+P18564); test: Inhibition of LAP binding to human alphavbeta6 integrin receptor after 1 hr by competitive solid-phase binding ELISA
[1] = target: Integrin alpha-IIb/beta-3 (Homo sapiens, UniProt P05106+P08514); test: Inhibition of fibrinogen binding to alpha2bbeta3 integrin receptor (unknown origin) after 1 hr by competitive solid-phase binding ELISA

IC50 (Integrin alpha-V/beta-3)	IC50 (Integrin alpha-5/beta-1)	IC50 (Integrin alpha-V/beta-5)	IC50 (Integrin alpha-V/beta-6)	IC50 [1]	SMILES
110 nM	> 10000 nM	–	–	–	Cc1cccc(NCCCOc2ccc(C[C@@H](CC(=O)O)NC(=O)c3ccccc3)cc2)n1
0.86 nM	126 nM	227 nM	20 nM	> 10000 nM	COc1ccnc(NCCCOc2ccc(C[C@@H](CC(=O)O)NC(=O)c3ccc(OC(C)C)cc3)cc2)c1
0.65 nM	108 nM	–	–	> 10000 nM	COc1ccnc(NCCCOc2ccc(C[C@@H](CC(=O)O)NS(=O)(=O)c3ccc(C)cc3)cc2)c1
638 nM	> 10000 nM	–	–	–	COc1ccnc(NCCCOc2ccc(C[C@@H](CC(=O)NO)NC(=O)c3ccc(OC(C)C)cc3)cc2)c1
75.1 nM	> 10000 nM	–	–	–	COc1ccnc(NCCCOc2ccc(C[C@@H](CC(=O)NO)NS(=O)(=O)c3ccc(C)cc3)cc2)c1
1.6 nM	64.2 nM	–	–	–	COc1ccnc(NCCCOc2ccc(C[C@@H](CC(=O)O)NC(=O)c3ccc(F)cc3)cc2)c1
